From ChEMBL document CHEMBL1157522 (Bioorg Med Chem Lett, 2008)
Calls of active or inactive are those of the source. The calls are words filed in the database; no cut-off is given here.

Key:
[1] = biological target: Tissue-type plasminogen activator (Homo sapiens) (UniProt P00750); assay: Inhibition of human tPA
[2] = biological target: Vitamin K-dependent protein C (Homo sapiens) (UniProt P04070); assay: Inhibition of human activated protein C
[3] = biological target: T1, Coagulation factor VII (Homo sapiens) (UniProt P08709); assay: Inhibition of human factor 7a
T1 sequence (whole entry): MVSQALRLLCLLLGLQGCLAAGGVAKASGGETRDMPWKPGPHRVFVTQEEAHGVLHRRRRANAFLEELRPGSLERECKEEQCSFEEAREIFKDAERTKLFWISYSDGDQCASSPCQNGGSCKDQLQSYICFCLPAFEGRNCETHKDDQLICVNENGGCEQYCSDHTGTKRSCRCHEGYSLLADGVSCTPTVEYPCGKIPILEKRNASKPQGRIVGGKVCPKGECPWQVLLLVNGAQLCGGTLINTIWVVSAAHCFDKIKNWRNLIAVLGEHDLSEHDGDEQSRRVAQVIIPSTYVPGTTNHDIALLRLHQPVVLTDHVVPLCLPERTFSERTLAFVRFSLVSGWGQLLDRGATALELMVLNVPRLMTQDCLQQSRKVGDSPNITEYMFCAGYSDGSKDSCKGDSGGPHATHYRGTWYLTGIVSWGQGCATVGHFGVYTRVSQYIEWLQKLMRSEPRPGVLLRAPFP

Coagulation factor X = Coagulation factor X (Homo sapiens, UniProt P00742); assay: Inhibition of human factor 10a
[4] = biological target: Plasma kallikrein (Homo sapiens) (UniProt P03952); assay: Inhibition of human plasma kallikrein; type: cell-free
[5] = biological target: Plasminogen (Homo sapiens) (UniProt P00747); assay: Inhibition of human plasmin
Homo sapiens = organism: Homo sapiens; assay: Inhibition of human chymotrypsin
[6] = biological target: Coagulation factor IX (Homo sapiens) (UniProt P00740); assay: Inhibition of human factor 9a
Trypsin (Homo sapiens) = Trypsin (Homo sapiens) (UniProt P07477+P07478+P35030); assay: Inhibition of human trypsin; type: protein assay

Sequence of Tissue-type plasminogen activator (Homo sapiens) (P00750 36-562 limits assumed): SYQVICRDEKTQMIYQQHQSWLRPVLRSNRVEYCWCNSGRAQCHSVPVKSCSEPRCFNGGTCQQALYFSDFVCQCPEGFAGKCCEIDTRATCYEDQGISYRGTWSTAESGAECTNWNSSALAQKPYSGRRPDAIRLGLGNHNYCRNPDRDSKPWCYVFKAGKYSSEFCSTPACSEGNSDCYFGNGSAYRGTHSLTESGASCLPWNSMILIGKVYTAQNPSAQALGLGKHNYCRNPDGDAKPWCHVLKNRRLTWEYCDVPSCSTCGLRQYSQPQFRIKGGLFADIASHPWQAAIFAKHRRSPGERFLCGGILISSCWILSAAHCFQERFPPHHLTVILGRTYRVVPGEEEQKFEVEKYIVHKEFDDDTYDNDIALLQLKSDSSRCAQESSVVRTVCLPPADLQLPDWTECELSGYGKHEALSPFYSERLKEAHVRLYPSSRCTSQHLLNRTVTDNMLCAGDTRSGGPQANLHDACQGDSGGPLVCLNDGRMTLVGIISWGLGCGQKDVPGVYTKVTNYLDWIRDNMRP
Sequence of Coagulation factor X (P00742 41-179 limits assumed): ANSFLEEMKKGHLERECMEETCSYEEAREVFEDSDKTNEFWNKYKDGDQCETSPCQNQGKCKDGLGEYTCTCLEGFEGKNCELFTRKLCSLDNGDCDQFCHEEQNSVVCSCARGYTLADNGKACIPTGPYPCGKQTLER
Sequence of Coagulation factor X (P00742 235-488 limits assumed): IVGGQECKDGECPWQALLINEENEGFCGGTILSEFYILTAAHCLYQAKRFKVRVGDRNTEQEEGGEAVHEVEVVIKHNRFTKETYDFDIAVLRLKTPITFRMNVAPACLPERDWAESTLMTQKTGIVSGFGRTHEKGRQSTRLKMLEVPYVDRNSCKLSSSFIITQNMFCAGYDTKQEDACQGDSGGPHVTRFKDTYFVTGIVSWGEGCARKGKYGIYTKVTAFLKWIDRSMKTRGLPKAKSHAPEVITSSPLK
Sequence of Vitamin K-dependent protein C (Homo sapiens) (P04070 43-197 limits assumed): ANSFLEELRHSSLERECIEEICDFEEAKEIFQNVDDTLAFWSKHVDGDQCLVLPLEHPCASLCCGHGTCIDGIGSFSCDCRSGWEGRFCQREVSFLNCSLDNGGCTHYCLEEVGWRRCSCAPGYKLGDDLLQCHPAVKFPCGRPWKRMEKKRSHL
Sequence of Vitamin K-dependent protein C (Homo sapiens) (P04070 212-461 limits assumed): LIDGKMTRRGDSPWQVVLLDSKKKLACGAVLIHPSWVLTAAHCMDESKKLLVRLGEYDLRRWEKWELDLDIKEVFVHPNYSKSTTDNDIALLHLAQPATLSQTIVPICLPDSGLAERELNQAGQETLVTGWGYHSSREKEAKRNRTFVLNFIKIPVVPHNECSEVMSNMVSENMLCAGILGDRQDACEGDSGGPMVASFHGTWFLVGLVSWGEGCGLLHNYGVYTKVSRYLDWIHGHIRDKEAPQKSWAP
Sequence of Plasma kallikrein (Homo sapiens) (P03952 20-390 limits assumed): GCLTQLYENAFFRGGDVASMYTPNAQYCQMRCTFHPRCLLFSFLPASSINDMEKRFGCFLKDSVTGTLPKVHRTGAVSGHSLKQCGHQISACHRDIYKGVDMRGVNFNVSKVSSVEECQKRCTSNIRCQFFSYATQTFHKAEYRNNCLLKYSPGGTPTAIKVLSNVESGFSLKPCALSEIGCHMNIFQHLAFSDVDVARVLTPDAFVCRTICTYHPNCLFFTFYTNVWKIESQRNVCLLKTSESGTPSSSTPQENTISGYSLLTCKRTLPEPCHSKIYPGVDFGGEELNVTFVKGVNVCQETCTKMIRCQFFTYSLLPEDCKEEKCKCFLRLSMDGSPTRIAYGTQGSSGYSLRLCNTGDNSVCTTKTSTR
Sequence of Plasma kallikrein (Homo sapiens) (P03952 391-638 limits assumed): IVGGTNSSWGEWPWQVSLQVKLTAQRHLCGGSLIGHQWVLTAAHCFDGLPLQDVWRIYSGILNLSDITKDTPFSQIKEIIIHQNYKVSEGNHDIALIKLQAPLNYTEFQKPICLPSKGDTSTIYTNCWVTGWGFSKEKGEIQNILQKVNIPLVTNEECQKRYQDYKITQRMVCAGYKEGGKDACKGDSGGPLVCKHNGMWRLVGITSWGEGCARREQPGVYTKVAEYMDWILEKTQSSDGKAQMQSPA
Sequence of Plasminogen (Homo sapiens) (P00747 97-580 limits assumed): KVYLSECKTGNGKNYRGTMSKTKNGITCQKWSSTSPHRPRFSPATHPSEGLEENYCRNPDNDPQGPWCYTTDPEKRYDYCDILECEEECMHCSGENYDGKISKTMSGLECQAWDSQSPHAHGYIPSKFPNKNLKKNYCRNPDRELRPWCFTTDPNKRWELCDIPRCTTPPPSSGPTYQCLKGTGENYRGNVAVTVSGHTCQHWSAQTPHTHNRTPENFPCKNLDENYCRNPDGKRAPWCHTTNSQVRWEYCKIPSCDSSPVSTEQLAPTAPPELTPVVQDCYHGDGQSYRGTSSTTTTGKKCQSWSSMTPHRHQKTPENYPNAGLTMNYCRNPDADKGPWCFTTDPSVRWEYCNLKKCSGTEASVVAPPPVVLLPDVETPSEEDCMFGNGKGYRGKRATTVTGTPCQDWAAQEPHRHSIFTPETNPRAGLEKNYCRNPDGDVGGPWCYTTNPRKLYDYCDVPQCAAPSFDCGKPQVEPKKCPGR
Sequence of Plasminogen (Homo sapiens) (P00747 581-810 limits assumed): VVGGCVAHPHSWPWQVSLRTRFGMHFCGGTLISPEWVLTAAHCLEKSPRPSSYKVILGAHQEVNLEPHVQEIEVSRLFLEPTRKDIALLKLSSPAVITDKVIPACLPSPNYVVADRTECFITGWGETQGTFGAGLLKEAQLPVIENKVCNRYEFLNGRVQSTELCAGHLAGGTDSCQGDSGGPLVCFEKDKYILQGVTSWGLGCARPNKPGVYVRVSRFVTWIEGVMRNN
Sequence of Coagulation factor IX (Homo sapiens) (P00740 47-191 limits assumed): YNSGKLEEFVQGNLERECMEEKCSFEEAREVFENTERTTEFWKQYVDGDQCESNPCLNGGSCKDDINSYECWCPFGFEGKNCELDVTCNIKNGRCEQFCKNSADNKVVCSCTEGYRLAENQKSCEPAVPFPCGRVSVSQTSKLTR
Sequence of Coagulation factor IX (Homo sapiens) (P00740 227-461 limits assumed): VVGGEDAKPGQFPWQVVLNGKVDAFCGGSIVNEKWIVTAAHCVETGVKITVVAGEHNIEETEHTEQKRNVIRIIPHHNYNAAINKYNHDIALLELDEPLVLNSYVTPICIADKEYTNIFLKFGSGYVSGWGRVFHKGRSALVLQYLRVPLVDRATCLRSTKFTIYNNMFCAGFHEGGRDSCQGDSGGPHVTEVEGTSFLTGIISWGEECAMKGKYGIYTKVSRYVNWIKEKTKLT

| Compound | Activity [1] | Activity [2] | Activity [3] | Ki (Coagulation factor X) | Activity [4] | Activity [5] | Activity (Homo sapiens) | Activity [6] | Activity (Trypsin (Homo sapiens)) |
| --- | --- | --- | --- | --- | --- | --- | --- | --- | --- |
| COc1ccc(-n2nc(C(F)(F)F)c3c2C(=O)N(c2ccc(C4(CO)CC4)cc2)CC3)cc1 | inactive | inactive | inactive | 2.4 nM | inactive | inactive | inactive | inactive | inactive |
| COc1ccc(-n2nc(C(F)(F)F)c3c2C(=O)N(c2ccc(C4(C(=O)N(C)C)CC4)cc2)CC3)cc1 | inactive | inactive | inactive | 5.8 nM | inactive | inactive | inactive | inactive | inactive |
| CNCC1(c2ccc(N3CCc4c(C(F)(F)F)nn(-c5ccc(OC)cc5)c4C3=O)cc2)CC1 | inactive | inactive | inactive |  | inactive | inactive | inactive | inactive | inactive |
| COc1ccc(-n2nc(C(F)(F)F)c3c2C(=O)N(c2ccc(C4(C(=O)NC5CCCC5)CC4)cc2)CC3)cc1 | inactive | inactive | inactive | 30 nM | inactive | inactive | inactive | inactive | inactive |
| COC(=O)C1(c2ccc(N3CCc4c(C(F)(F)F)nn(-c5ccc(OC)cc5)c4C3=O)cc2)CC1 | inactive | inactive | inactive |  | inactive | inactive | inactive | inactive | inactive |
| COc1ccc(-n2nc(C(F)(F)F)c3c2C(=O)N(c2ccc(C4(CN5CCOCC5)CC4)cc2)CC3)cc1 | inactive | inactive | inactive |  | inactive | inactive | inactive | inactive | inactive |
| COc1ccc(-n2nc(C(F)(F)F)c3c2C(=O)N(c2ccc(-c4ccccc4CNC(C)C)cc2)CC3)cc1 |  |  |  | 1.4 nM |  |  |  |  |  |
| COc1ccc(-n2nc(C(F)(F)F)c3c2C(=O)N(c2ccc(C4(C(N)=O)CC4)cc2)CC3)cc1 | inactive | inactive | inactive | 3.3 nM | inactive | inactive | inactive | inactive | inactive |
| COc1ccc(-n2nc(C(F)(F)F)c3c2C(=O)N(c2ccc(C4(C#N)CC4)cc2)CC3)cc1 | inactive | inactive | inactive | 1.8 nM | inactive | inactive | inactive | inactive | inactive |
| COc1ccc(-n2nc(C(F)(F)F)c3c2C(=O)N(c2ccc(C4(C(=O)Nc5nnn[nH]5)CC4)cc2)CC3)cc1 | inactive | inactive | inactive | 3 nM | inactive | inactive | inactive | inactive | inactive |
| COc1ccc(-n2nc(C(F)(F)F)c3c2C(=O)N(c2ccc(C4(C(=O)N5CCC(O)CC5)CC4)cc2)CC3)cc1 | inactive | inactive | inactive | 54 nM | inactive | inactive | inactive | inactive | inactive |
| COCC1(c2ccc(N3CCc4c(C(F)(F)F)nn(-c5ccc(OC)cc5)c4C3=O)cc2)CC1 | inactive | inactive | inactive | 1.6 nM | inactive | inactive | inactive | inactive | inactive |
| COc1ccc(-n2nc(C(F)(F)F)c3c2C(=O)N(c2ccc(C4(CN)CC4)cc2)CC3)cc1 | inactive | inactive | inactive | 0.57 nM | inactive | inactive | inactive | inactive | inactive |
| COc1ccc(-n2nc(C(F)(F)F)c3c2C(=O)N(c2ccc(C4(Cn5ccnc5C)CC4)cc2)CC3)cc1 | inactive | inactive | inactive |  | inactive | inactive | inactive | inactive | inactive |
| COc1ccc(-n2nc(C(F)(F)F)c3c2C(=O)N(c2ccc(C4(C(=O)Nc5nncs5)CC4)cc2)CC3)cc1 | inactive | inactive | inactive | 1.8 nM | inactive | inactive | inactive | inactive | inactive |
| COc1ccc(-n2nc(C(F)(F)F)c3c2C(=O)N(c2ccc(C4(C(=O)N5CCCC5)CC4)cc2)CC3)cc1 | inactive | inactive | inactive | 169 nM | inactive | inactive | inactive | inactive | inactive |

More lines, now with the values ahead:

| Activity [1] | Activity [2] | Activity [3] | Ki (Coagulation factor X) | Activity [4] | Activity [5] | Activity (Homo sapiens) | Activity [6] | Activity (Trypsin (Homo sapiens)) | Compound |
| --- | --- | --- | --- | --- | --- | --- | --- | --- | --- |
| inactive | inactive | inactive | 0.14 nM | inactive | inactive | inactive | inactive | inactive | COc1ccc(-n2nc(C(F)(F)F)c3c2C(=O)N(c2ccc(C4(CN5CCC(O)CC5)CC4)cc2)CC3)cc1 |
| inactive | inactive | inactive | 0.055 nM | inactive | inactive | inactive | inactive | inactive | COc1ccc(-n2nc(C(F)(F)F)c3c2C(=O)N(c2ccc(C4(CN(C)C(C)=O)CC4)cc2)CC3)cc1 |
|  |  |  | 0.15 nM |  |  |  |  |  | CNCc1ccccc1-c1ccc(N2CCc3c(C(N)=O)nn(-c4ccc(OC)cc4)c3C2=O)cc1 |
|  |  |  | 0.28 nM |  |  |  |  |  | CNCc1ccccc1-c1ccc(N2CCc3c(C(F)(F)F)nn(-c4ccc(OC)cc4)c3C2=O)cc1 |
|  |  |  | 0.3 nM |  |  |  |  |  | COc1ccc(-n2nc(C(F)(F)F)c3c2C(=O)N(c2ccc(-c4ccccc4CN(C)C)cc2)CC3)cc1 |
| inactive | inactive | inactive | 0.14 nM | inactive | inactive | inactive | inactive | inactive | CCNC(=O)N(C)CC1(c2ccc(N3CCc4c(C(F)(F)F)nn(-c5ccc(OC)cc5)c4C3=O)cc2)CC1 |
| inactive | inactive | inactive | 0.038 nM | inactive | inactive | inactive | inactive | inactive | COc1ccc(-n2nc(C(F)(F)F)c3c2C(=O)N(c2ccc(C4(CN5CC[C@@H](O)C5)CC4)cc2)CC3)cc1 |
| inactive | inactive | inactive | 0.12 nM | inactive | inactive | inactive | inactive | inactive | COc1ccc(-n2nc(C(F)(F)F)c3c2C(=O)N(c2ccc(C4(CNC5CCCC5)CC4)cc2)CC3)cc1 |
| inactive | inactive | inactive | 0.054 nM | inactive | inactive | inactive | inactive | inactive | COc1ccc(-n2nc(C(F)(F)F)c3c2C(=O)N(c2ccc(C4(CNc5nccs5)CC4)cc2)CC3)cc1 |
| inactive | inactive | inactive | 0.074 nM | inactive | inactive | inactive | inactive | inactive | COc1ccc(-n2nc(C(F)(F)F)c3c2C(=O)N(c2ccc(C4(CN(C)S(C)(=O)=O)CC4)cc2)CC3)cc1 |
